According to article PMC10584170, “Machine learning-based phenotypic imaging to characterise the targetable biology of Plasmodium falciparum male gametocytes for the development of transmission-blocking antimalarials” (PLOS Pathogens, 2023):
pIC50: −log10 of the molar value. Where two headings read alike, the source gives them in different places.

Experiments:
[1] = test system: P. falciparum female gametocytes; parameters: method as in Miguel-Blanco et al 2017; conditions: ref Miguel-Blanco et al 2017; read-out: Pf female gametogenesis FGAA IC50; cited from earlier work
[2] = test system: P. falciparum female gametocytes; assay: P. falciparum Female Gametocyte Activation Assay (PfFGAA); type: cell-based, Plasmodium falciparum
Text: Fig 1 The activity of TCAMS compound identified in the Pf DGFA screen. (A) 85 molecules were confirmed active in the Pf DGFA. 58 were previously identified in one or more transmission-blocking screens. […] No molecule was identified with >4.7-fold greater activity against female gametocytes. Abbreviations (IC50 = concentration giving 50% inhibition, PbODA = P. berghei Ookinete Development Assay, PfDGFA = P. falciparum Dual Gamete Formation Assay, PfFGAA = P. falciparum Female Gametocyte Activation Assay, PfGCT = P. falciparum Gametocyte Viability ATP Assay).

HepG2 cells [3] = assay: HepG2 cytotoxicity counter-screen; conditions: for Mean TOX: mean of the HepG2 TOX50 values; for Tox50: cytotoxic activity against HepG2 cells
[4] = test system: P. falciparum female gametocytes; assay: P. falciparum Dual Gamete Formation Assay (PfDGFA), female readout (Pfs25-positive female gametes); type: cell-based, Plasmodium falciparum NF54; conditions: for Selectivity ratio F: HepG2 Tox50 versus female IC50; for HitlevelF: number of replicates with >50% inhibition in the female readout
Method in brief: (§1)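 First, day-14 P. falciparum NF54 gametocytes receive compound for 24 h at 37°C in 1% O2/3% CO2. Next, ookinete medium with Cy3 anti-Pfs25 triggers gametogenesis at 28°C and male exflagellation is imaged. Finally, after 24 h in the dark, Cy3-labelled females are imaged.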

HepG2 cells [5] = conditions: cited from earlier work
[6] = test system: P. falciparum male gametocytes; assay: P. falciparum Dual Gamete Formation Assay (PfDGFA), male readout (exflagellation); type: cell-based, Plasmodium falciparum NF54; conditions: for Selectivity Ratio M: HepG2 Tox50 versus male IC50; for HitlevelM: number of replicates with >50% inhibition in the male readout
Method in brief: as §1

[7] = Mean TOX HepG2 over FGAA IC50, GREEN = >10-fold, RED = <10-fold
[8] = this study, read-out: Pf DGFA IC50 MALE
[9] = this study, read-out: Pf DGFA IC50 FEM
[10] = Plasmodium falciparum, PfDGFA, 24 h incubation with gametocytes before induction, female gamete readout, read-out: Female IC50
[11] = Plasmodium falciparum, PfDGFA, 24 h incubation with gametocytes before induction, exflagellation readout, read-out: Male IC50
[12] = PfDGFA at 2µM, 24h preincubation with gametocytes, average of replicates
[13] = PfDGFA at 2µM, 24h preincubation with gametocytes, replicate R1
[14] = PfDGFA at 2µM, 24h preincubation with gametocytes, replicate R3
[15] = PfDGFA at 2µM, 24h preincubation with gametocytes, replicate R4
[16] = Plasmodium falciparum, 2µM, 24h preincubation with gametocytes, average of replicates, read-out: Average inhibition female (%)
[17] = Plasmodium falciparum, 2µM, 24h preincubation with gametocytes, replicate R1, read-out: % inhibition female (individual replicates) R1
[18] = Plasmodium falciparum, 2µM, 24h preincubation with gametocytes, replicate R2, read-out: % inhibition female (individual replicates) R2
[19] = Plasmodium falciparum, 2µM, 24h preincubation with gametocytes, replicate R3, read-out: % inhibition female (individual replicates) R3
[20] = Plasmodium falciparum, 2µM, 24h preincubation with gametocytes, replicate R4, read-out: % inhibition female (individual replicates) R4
[21] = Plasmodium falciparum, 2µM, 24h preincubation with gametocytes, average of replicates, read-out: Average inhibition male (%)
[22] = Plasmodium falciparum, 2µM, 24h preincubation with gametocytes, replicate R1, read-out: % inhibition male (individual replicates) R1
[23] = Plasmodium falciparum, 2µM, 24h preincubation with gametocytes, replicate R2, read-out: % inhibition male (individual replicates) R2
[24] = Plasmodium falciparum, 2µM, 24h preincubation with gametocytes, replicate R3, read-out: % inhibition male (individual replicates) R3
[25] = Plasmodium falciparum, 2µM, 24h preincubation with gametocytes, replicate R4, read-out: % inhibition male (individual replicates) R4

| Structure (SMILES) | pIC50 [4, 9] | pIC50 [1] | Cytotox ratio Pf FGAA [2, 7] | Mean TOX (HepG2 cells [3]) | Cytotox ratio Pf Female [4] | FGAA TOX50 HepG2 (HepG2 cells [5]) | Cytotox ratio Pf Male [6] | pIC50 [6, 8] | Tox50 (HepG2 cells [3]) | Selectivity ratio F [4] | Selectivity Ratio M [6] | further results |
| --- | --- | --- | --- | --- | --- | --- | --- | --- | --- | --- | --- | --- |
| Cc1ccc(C(C(=O)Nc2ccc(N3CCNCC3)c(Cl)c2)c2ccccc2)cc1 (stereo not drawn) [TC10] |  | 6.18 | 17.6 | 11.61 µM | 1.2 | 11.89 µM | 27.6 | 6.38 |  |  |  |  |
| FC(F)(F)c1ccc2[nH]c(-c3ccc(-c4ccc(CNCCN5CCNCC5)cc4)cc3)nc2c1.O=C(O)C(F)(F)F [TC40] | 5.22 | 5.85 | 10.7 | 15.09 µM | 2.5 | 16.43 µM | 10.3 | 5.84 |  |  |  |  |
| O=C1Nc2ccccc2C1=NNC(=S)N1CCOCC1 [TC50] | 5.75 | 6.62 | 192.9 | 46.30 µM | 26.0 |  | 22.9 | 5.69 |  |  |  | DGFA Tox50 HepG2 (HepG2 cells [3]; HepG2 value reported with the DGFA screen): 46.3 µM |
| COc1ccc2nc(N=C3NC4(c5ccccc5)NC(=Nc5nc6ccc(OC)cc6[nH]5)NC4(c4ccccc4)N3)[nH]c2c1.O=C(O)C(F)(F)F (stereo not drawn) [TC55] | 5.23 | 6.92 | 401.0 | 48.12 µM | 8.2 | 62.72 µM | 41.5 | 5.94 |  |  |  |  |
| FC(F)(F)c1ccc2[nH]c(-c3ccc(-c4cccc(CNCCN5CCNCC5)c4)cc3)nc2c1.O=C(O)C(F)(F)F [TC77] | 5.29 | 5.77 | 9.6 | 16.43 µM | 3.2 | 12.31 µM | 10.0 | 5.79 |  |  |  |  |
| CC(Nc1cc(-c2ccccn2)nc(-c2ccccn2)n1)c1ccccc1 (stereo not drawn) [TCMDC-125420] |  | 6.68 |  | 6.79 µM |  |  |  |  | 7.4 µM | 10.4 | 3.89 | Cytotox ratio Pf FGAA ([2]; human): 29.4; Cytotox ratio Pf Female ([4]; Mean TOX HepG2 over DGFA IC50 FEM, GREEN = >10-fold, RED = <10-fold): 9.6; inhibition at 2 µM ([4]; Plasmodium falciparum, PfDGFA at 2µM, 24h preincubation with gametocytes, average of replicates, read-out: Average inhibition female (%)): 56%; inhibition at 2 µM ([4]; Plasmodium falciparum, PfDGFA at 2µM, 24h preincubation with gametocytes, replicate R1, read-out: % inhibition female (individual replicates) R1): 55.2%; inhibition at 2 µM ([4]; Plasmodium falciparum, PfDGFA at 2µM, 24h preincubation with gametocytes, replicate R2, read-out: % inhibition female (individual replicates) R2): 57.8%; inhibition at 2 µM ([4]; Plasmodium falciparum, PfDGFA at 2µM, 24h preincubation with gametocytes, replicate R3, read-out: % inhibition female (individual replicates) R3): 63%; inhibition at 2 µM ([4]; Plasmodium falciparum, PfDGFA at 2µM, 24h preincubation with gametocytes, replicate R4, read-out: % inhibition female (individual replicates) R4): 48%; pIC50 [4, 10]: 6.15; HitlevelF ([4]; 2µM): 3; FGAA TOX50 HepG2 (HepG2 cells [5]; HepG2 value reported with the FGAA screen, ref Miguel-Blanco et al 2017): 6.18 µM; Cytotox ratio Pf Male ([6]; Mean TOX HepG2 over DGFA IC50 MALE, GREEN = >10-fold, RED = <10-fold): 3.6; inhibition at 2 µM ([6]; Plasmodium falciparum, PfDGFA at 2µM, 24h preincubation with gametocytes, average of replicates, read-out: Average inhibition male (%)): 78.7%; inhibition at 2 µM ([6]; Plasmodium falciparum, PfDGFA at 2µM, 24h preincubation with gametocytes, replicate R1, read-out: % inhibition male (individual replicates) R1): 74.1%; inhibition at 2 µM ([6]; Plasmodium falciparum, PfDGFA at 2µM, 24h preincubation with gametocytes, replicate R2, read-out: % inhibition male (individual replicates) R2): 77.3%; inhibition at 2 µM ([6]; Plasmodium falciparum, PfDGFA at 2µM, 24h preincubation with gametocytes, replicate R4, read-out: % inhibition male (individual replicates) R4): 84.5%; pIC50 [6, 11]: 5.72; HitlevelM ([6]; 2µM): 3 |
| Cl.OC(CNCCCCCCNCC(O)c1ccc(Cl)c(Cl)c1)c1ccc(Cl)c(Cl)c1 (stereo not drawn) [TCMDC-141987] |  |  |  |  |  |  |  |  | 6.33 µM | 1.28 | 3.57 | Average inhibition female (%) [4, 12]: 52.4%; % inhibition female (individual replicates) R1 [4, 13]: 44.0%; % inhibition female (individual replicates) R3 [4, 14]: 21.3%; % inhibition female (individual replicates) R4 [4, 15]: 69.1%; pIC50 ([4]; PfDGFA, 24 h incubation with gametocytes before induction, female gamete readout, read-out: Female IC50): 5.31; HitlevelF ([4]; 2µM): 2; Average inhibition male (%) [6, 12]: 88.7%; % inhibition male (individual replicates) R1 [6, 13]: 92.2%; % inhibition male (individual replicates) R3 [6, 14]: 63.5%; % inhibition male (individual replicates) R4 [6, 15]: 102.2%; pIC50 ([6]; PfDGFA, 24 h incubation with gametocytes before induction, exflagellation readout, read-out: Male IC50): 5.75; HitlevelM ([6]; 2µM): 4 |
| O=c1c(Br)ccccc1Br [TCMDC-142246] |  |  |  |  |  |  |  |  | 6.95 µM | 63.16 | 47.29 | inhibition at 2 µM [4, 16]: 96.5%; inhibition at 2 µM [4, 17]: 93.6%; inhibition at 2 µM [4, 18]: 94.7%; inhibition at 2 µM [4, 19]: 103%; inhibition at 2 µM [4, 20]: 94.9%; pIC50 [4, 10]: 6.96; inhibition at 2 µM [6, 21]: 98.7%; inhibition at 2 µM [6, 22]: 98.2%; inhibition at 2 µM [6, 23]: 102%; inhibition at 2 µM [6, 24]: 94.6%; inhibition at 2 µM [6, 25]: 99.6%; pIC50 [6, 11]: 6.82 |
| Nc1cc(C=Cc2ccc([N+](=O)[O-])o2)nc2ccccc12 [TCMDC-142295] |  |  |  |  |  |  |  |  | 2.6 µM | 6.49 | 16.74 | inhibition at 2 µM [4, 16]: 93.7%; inhibition at 2 µM [4, 17]: 96.4%; inhibition at 2 µM [4, 18]: 95.7%; inhibition at 2 µM [4, 19]: 93.8%; inhibition at 2 µM [4, 20]: 88.9%; pIC50 [4, 10]: 6.40; inhibition at 2 µM [6, 21]: 98.9%; inhibition at 2 µM [6, 22]: 98.2%; inhibition at 2 µM [6, 23]: 98.8%; inhibition at 2 µM [6, 24]: 98.4%; inhibition at 2 µM [6, 25]: 100%; pIC50 [6, 11]: 6.80 |
| Nc1cc(C=Cc2ccc([N+](=O)[O-])s2)nc2ccccc12 [TCMDC-142296] |  |  |  |  |  |  |  |  | 1.76 µM | 1.71 | 5.37 | inhibition at 2 µM [4, 16]: 80.5%; inhibition at 2 µM [4, 17]: 71.6%; inhibition at 2 µM [4, 18]: 88.4%; inhibition at 2 µM [4, 19]: 72.1%; inhibition at 2 µM [4, 20]: 89.8%; pIC50 [4, 10]: 5.99; inhibition at 2 µM [6, 21]: 100%; inhibition at 2 µM [6, 22]: 99.9%; inhibition at 2 µM [6, 23]: 101%; inhibition at 2 µM [6, 24]: 97.4%; inhibition at 2 µM [6, 25]: 102%; pIC50 [6, 11]: 6.48 |

Now from value to compound, other results behind:

| pIC50 [4, 9] | Structure (SMILES) | pIC50 [1] | Cytotox ratio Pf FGAA [2, 7] | Mean TOX (HepG2 cells [3]) | Cytotox ratio Pf Female [4] | FGAA TOX50 HepG2 (HepG2 cells [5]) | Cytotox ratio Pf Male [6] | pIC50 [6, 8] | Tox50 (HepG2 cells [3]) | Selectivity ratio F [4] | Selectivity Ratio M [6] | further results |
| --- | --- | --- | --- | --- | --- | --- | --- | --- | --- | --- | --- | --- |
| 6.13 | CCc1cc2c(Sc3nnc(N)s3)ncnc2s1 [TC12] | 6.14 | 63.9 | 46.65 µM | 63.0 | 32.3 µM | 47.6 | 6.01 |  |  |  |  |
| 5.89 | COc1cccc(C23NC(=Nc4nc5ccccc5[nH]4)NC2(c2cccc(OC)c2)NC(=Nc2nc4ccccc4[nH]2)N3)c1 (stereo not drawn) [TC54] | 7.05 | 406.2 | 36.56 µM | 28.1 | 40.74 µM | 19.8 | 5.73 |  |  |  |  |
| 5.99 | c1ccc(-c2nc(Nc3nc4ccccc4[nH]3)[nH]c2-c2ccccc2)cc1 [TC56] | 6.24 | 23.4 | 13.60 µM | 13.3 | 10.98 µM | 14.3 | 6.02 |  |  |  |  |
| 6.57 | CC(C)(CN)c1nc(-c2ccc(Cl)c(O)c2)c(-c2ccncc2)[nH]1.Cl [TC61] | 6.03 |  | 7.15 µM |  | 2.16 µM |  | 6.04 |  |  |  | ODA TOX50 HepG2 (HepG2 cells [5]): 1.66 µM |
| 5.15 | CCN(CC)CCN(Cc1ccc(-c2ccc(C(F)(F)F)cc2)cc1)C(=O)Cn1cc(Cc2cnn(C)c2)c(=O)nc1/C=C/c1ccc(F)cc1.O=C(O)C(O)C(O)C(=O)O [TC64] | 5.92 | 12.5 | 15.09 µM | 2.1 | 13.81 µM | 17.8 | 6.07 |  |  |  |  |
